Remaining binding data for one molecule are collected here from PMC4620497 (Scientific Reports, 2015).

What all share (test): KINOMEscan panel screen
What all share (type): binding
Holding throughout (settings): read-out: Percent Control(%)

The target in assay [1] is T1, CSNK1E (Homo sapiens, UniProt P49674).
T1 construct: purchased DiscoveRx KINOMEscan (Ambit Biosciences)

In assay [2] the target is T2, BMPR1B (Homo sapiens, UniProt O00238).
T2 construct: purchased DiscoveRx KINOMEscan (Ambit Biosciences)
T2 sequence (O00238 14-502): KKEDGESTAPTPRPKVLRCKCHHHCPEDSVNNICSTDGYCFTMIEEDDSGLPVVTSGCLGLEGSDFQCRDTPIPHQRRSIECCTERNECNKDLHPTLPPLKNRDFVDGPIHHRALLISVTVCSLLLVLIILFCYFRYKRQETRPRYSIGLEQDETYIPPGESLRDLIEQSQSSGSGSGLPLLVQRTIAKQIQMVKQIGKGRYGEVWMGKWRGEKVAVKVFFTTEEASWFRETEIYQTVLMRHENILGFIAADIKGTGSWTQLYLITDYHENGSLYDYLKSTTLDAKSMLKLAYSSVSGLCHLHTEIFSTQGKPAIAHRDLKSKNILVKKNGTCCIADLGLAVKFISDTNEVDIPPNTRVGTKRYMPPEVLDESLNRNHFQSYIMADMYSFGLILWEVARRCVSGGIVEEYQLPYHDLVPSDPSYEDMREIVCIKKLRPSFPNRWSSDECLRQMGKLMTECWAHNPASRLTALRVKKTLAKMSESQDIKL

The target in assay [3] is T3, AURKA (Homo sapiens, UniProt O14965).
T3 construct: purchased DiscoveRx KINOMEscan (Ambit Biosciences)
T3 sequence (O14965 whole entry): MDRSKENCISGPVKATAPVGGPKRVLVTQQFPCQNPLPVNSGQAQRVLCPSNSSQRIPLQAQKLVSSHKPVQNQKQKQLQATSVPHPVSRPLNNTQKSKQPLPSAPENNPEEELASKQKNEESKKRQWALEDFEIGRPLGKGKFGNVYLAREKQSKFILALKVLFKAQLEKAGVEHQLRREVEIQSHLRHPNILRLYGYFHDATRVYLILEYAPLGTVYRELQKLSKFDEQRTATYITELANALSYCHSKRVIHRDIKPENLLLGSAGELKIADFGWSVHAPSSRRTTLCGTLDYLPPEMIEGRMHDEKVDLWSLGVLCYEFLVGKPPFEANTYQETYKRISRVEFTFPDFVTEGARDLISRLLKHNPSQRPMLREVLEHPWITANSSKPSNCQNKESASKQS

Assay [4] deals with T4, PCTK2 (Homo sapiens, UniProt Q00537).
T4 construct: purchased DiscoveRx KINOMEscan (Ambit Biosciences)
T4 sequence (Q00537 whole entry): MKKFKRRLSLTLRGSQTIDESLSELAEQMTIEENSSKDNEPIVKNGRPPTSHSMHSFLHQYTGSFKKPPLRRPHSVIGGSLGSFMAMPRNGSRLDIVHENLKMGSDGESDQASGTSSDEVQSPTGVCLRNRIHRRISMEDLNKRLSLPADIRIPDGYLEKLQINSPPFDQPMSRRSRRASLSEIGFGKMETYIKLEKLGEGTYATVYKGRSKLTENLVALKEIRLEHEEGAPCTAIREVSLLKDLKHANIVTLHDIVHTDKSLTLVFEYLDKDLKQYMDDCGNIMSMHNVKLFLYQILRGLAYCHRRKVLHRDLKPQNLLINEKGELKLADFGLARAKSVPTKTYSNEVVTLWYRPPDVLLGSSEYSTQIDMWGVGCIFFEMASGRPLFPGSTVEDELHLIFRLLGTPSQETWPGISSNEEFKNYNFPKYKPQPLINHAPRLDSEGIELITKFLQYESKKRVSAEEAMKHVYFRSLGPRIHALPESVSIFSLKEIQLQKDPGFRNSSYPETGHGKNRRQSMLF

The target in assay [5] is T5, DLK (Homo sapiens, UniProt Q12852).
T5 sequence (Q12852 1-859): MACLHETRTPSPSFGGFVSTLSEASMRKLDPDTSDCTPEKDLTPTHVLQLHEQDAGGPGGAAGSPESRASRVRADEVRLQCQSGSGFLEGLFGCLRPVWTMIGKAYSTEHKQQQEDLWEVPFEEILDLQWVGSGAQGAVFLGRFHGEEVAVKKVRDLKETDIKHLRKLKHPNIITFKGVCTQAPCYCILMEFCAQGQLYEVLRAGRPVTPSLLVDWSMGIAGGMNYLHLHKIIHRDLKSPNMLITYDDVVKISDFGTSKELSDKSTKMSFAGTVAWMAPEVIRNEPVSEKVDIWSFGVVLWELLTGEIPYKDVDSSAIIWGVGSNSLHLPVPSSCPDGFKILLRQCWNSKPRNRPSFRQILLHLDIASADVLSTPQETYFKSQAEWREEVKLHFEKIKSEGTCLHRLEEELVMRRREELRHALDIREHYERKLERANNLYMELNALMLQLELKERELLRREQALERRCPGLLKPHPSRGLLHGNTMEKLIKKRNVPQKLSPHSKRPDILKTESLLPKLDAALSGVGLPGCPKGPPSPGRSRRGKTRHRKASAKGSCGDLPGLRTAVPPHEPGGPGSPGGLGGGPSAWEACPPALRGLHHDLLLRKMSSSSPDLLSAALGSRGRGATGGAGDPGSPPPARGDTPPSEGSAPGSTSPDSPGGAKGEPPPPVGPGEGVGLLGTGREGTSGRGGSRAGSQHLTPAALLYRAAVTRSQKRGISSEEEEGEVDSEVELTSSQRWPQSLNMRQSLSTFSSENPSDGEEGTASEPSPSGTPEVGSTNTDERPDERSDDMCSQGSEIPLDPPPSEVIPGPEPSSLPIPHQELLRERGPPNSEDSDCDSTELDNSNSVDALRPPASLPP

Assay [6] deals with T6, CDKL2 (Homo sapiens, UniProt Q92772).
T6 construct: purchased DiscoveRx KINOMEscan (Ambit Biosciences)
T6 sequence (Q92772 whole entry): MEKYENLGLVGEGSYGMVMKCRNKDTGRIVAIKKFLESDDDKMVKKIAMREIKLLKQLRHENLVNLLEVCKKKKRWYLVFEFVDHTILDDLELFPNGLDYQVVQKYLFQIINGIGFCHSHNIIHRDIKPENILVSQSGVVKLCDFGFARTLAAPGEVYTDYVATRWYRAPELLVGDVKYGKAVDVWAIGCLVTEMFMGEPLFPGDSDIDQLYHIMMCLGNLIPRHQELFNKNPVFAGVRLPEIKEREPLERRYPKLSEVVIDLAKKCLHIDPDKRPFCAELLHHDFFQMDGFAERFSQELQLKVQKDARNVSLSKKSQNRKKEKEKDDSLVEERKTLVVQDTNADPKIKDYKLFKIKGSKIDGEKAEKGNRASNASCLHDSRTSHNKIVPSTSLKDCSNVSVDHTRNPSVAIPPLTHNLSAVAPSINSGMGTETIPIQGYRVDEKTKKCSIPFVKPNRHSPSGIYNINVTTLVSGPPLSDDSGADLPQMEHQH

In assay [7] the target is T7, SNRK (Homo sapiens, UniProt Q9NRH2).
T7 construct: purchased DiscoveRx KINOMEscan (Ambit Biosciences)
T7 sequence (Q9NRH2 whole entry): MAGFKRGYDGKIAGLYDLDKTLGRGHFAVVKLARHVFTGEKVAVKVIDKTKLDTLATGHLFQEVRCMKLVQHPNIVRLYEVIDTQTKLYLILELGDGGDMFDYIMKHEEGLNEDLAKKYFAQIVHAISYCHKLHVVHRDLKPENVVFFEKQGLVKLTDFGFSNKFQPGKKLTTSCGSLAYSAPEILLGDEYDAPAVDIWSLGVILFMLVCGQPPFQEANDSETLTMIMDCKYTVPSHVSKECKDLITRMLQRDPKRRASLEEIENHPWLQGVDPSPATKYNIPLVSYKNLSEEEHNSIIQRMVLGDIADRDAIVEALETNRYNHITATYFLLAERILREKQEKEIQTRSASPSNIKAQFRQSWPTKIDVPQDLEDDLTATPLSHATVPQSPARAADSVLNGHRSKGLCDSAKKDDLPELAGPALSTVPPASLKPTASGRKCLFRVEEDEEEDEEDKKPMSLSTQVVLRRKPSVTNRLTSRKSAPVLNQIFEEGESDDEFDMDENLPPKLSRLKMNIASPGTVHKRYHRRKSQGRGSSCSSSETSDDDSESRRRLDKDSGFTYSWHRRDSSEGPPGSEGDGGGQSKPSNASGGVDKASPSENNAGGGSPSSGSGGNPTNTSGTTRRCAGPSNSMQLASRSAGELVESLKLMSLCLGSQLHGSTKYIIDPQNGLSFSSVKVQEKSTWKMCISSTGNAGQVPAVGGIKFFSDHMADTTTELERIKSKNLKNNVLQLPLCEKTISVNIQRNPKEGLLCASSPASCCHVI

The target in assay [8] is T8, KIT(L576P) (Homo sapiens, UniProt P10721, L576P).
T8 construct: purchased DiscoveRx KINOMEscan (Ambit Biosciences)
T8 sequence (P10721 546-976 L576P limits assumed): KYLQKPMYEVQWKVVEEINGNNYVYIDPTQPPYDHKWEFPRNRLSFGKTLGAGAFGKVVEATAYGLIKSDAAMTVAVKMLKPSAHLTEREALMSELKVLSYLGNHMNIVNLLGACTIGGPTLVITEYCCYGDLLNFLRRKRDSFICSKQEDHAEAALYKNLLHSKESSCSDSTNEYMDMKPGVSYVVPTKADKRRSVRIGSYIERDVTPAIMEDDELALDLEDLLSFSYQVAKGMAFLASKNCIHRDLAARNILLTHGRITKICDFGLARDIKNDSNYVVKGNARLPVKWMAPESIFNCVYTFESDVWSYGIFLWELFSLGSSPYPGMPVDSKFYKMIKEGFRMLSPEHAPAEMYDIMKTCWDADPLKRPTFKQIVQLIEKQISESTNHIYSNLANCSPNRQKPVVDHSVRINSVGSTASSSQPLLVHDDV

Assay [9] concerns the target T9, MRCKA (Homo sapiens, UniProt Q5VT25).
T9 construct: purchased DiscoveRx KINOMEscan (Ambit Biosciences)

For assay [10], the target named is T10, TYK2(JH2domain-pseudokinase) (Homo sapiens, UniProt P29597).
T10 construct: TYK2(JH2domain-pseudokinase); purchased DiscoveRx KINOMEscan (Ambit Biosciences)
T10 sequence (P29597 556-888 limits assumed): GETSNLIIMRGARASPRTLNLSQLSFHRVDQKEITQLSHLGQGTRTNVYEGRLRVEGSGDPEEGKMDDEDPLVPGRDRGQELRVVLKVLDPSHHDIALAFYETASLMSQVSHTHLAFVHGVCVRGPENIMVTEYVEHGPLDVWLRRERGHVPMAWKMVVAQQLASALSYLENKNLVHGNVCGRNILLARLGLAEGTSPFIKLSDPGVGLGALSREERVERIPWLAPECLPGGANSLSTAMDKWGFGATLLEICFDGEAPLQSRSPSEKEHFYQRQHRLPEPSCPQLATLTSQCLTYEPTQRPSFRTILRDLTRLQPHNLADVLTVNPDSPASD

T1 sequence (P49674 whole entry): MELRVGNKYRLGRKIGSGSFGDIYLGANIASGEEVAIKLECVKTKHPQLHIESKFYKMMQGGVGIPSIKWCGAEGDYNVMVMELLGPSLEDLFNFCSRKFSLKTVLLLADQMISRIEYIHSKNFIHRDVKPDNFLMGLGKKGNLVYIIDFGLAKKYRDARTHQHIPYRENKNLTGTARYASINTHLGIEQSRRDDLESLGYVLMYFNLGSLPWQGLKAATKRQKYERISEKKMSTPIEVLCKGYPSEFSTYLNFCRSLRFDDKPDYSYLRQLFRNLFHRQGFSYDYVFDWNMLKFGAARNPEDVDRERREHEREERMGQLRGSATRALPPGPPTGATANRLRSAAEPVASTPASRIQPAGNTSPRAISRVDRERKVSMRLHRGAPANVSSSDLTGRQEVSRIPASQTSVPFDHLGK

As to `CC(C)(C)c1cc(NC(=O)Nc2ccc(Oc3ncnc4[nH]ncc34)c(F)c2)no1` [SKLB-677, 1-(4-(1H-pyrazolo[3,4-d]pyrimidin-4-yloxy)-3-fluorophenyl)-3-(5-tert-butylisoxazol-3-yl)urea], the remaining binding at 10 µM in assay [1] came to 31%; in [2], 88%; in assay [3], 35%; in assay [4], 0%; in assay [5] it was 86%; in [6], 1.7%. The remaining binding at 10 µM in assay [7] worked out at 100%; in [8] it was 0%; in [9] it was 100%; in [10] it was 100%.
